Results on one compound are retold here after patent US9458198B1, “Cyclic peptide-based NPR-B agonists” (priority 2009, dated 2016).

Assay [1] addresses T1, NPR-B (Homo sapiens, UniProt P20594).
T1 construct: a functional assay using endogenously NPR-B expressing GTM-3 cells; endogenous in cells; host or cells: GTM-3 (transformed human trabecular meshwork cells)
T1 sequence (P20594 23-1047): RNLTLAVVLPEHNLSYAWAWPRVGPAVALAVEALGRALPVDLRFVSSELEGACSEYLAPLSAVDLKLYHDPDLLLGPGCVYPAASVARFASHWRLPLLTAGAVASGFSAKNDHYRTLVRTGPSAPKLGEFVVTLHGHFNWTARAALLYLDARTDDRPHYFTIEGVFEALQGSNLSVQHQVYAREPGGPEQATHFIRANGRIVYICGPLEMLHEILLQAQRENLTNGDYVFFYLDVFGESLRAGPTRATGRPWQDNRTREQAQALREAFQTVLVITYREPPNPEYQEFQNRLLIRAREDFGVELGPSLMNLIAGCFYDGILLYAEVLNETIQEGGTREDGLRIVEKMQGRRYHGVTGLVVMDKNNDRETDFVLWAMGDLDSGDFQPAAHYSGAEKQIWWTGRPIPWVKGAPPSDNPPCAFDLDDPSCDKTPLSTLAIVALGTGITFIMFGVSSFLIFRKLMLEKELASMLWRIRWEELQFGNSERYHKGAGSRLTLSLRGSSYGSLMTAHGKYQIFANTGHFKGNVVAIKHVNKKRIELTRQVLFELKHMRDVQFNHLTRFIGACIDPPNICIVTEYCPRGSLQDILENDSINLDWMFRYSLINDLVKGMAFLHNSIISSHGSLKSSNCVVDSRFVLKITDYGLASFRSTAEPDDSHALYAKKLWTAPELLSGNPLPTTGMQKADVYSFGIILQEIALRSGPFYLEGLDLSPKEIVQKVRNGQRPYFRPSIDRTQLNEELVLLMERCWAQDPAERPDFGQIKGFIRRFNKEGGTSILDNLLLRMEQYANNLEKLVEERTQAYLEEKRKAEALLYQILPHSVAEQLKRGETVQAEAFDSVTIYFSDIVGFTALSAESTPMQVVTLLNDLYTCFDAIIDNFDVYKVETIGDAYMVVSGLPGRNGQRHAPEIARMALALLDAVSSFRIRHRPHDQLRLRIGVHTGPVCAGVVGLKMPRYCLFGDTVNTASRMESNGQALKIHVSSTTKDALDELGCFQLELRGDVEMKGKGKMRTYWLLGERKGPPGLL
Kind of assay: NPR-B induced production of cyclic GMP in GTM-3 cells. Format: cell-based. The conditions noted are these: EC50, cyclic GMP production, GTM-3 cells, FIG. 2, 4-Parameter Logistic Equation. In short, it runs like this:
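GTM-3 cells with endogenous NPR-B were washed and preincubated 15 min at room temperature in medium with 1 mM IBMX. Compounds were tested at final 45 μM to 20 nM; dose-dependent cGMP production gave Emax and EC50.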

Assay [2] relates to chondrocytes. The conditions noted are these: low doses 10 to 100 pM, at the highest dose; cited from earlier work.
Assay [3] has as its system AtT-20 cells. As to conditions: cited from earlier work.
The subject of assay [4] is small-cell lung cancer cells. As to conditions: 100 nM; cited from earlier work.
The target of assay [5] is NPR-A (Rattus norvegicus, UniProt P18910). Briefly: cell-based.
Method: In this homogenous assay, the cells are stimulated in suspension with the test compound and the production of cyclic GMP (cGMP) is determined, from which EC50 values are calculated.
Detached cells are harvested in 20 ml PBS and centrifuged for 10 min at 200×g at room temperature.
20 μl of cells (2.5×10^3 cells) are added to each well of a 96 well white optical bottom tissue culture plate (Nunc, Germany). 10 μl of compound dilution is added and the cells are stimulated for 25 min. at room temperature. The stimulation is stopped by addition of 20 μl of Lysis buffer (reagent included in cGMP Assay Kit).
Determination of cGMP: The amount of produced cGMP in the cells is determined using HitHunter™ cGMP Assay kit (DiscoveRX) according to manufacturer's instructions.
Dilutions are prepared in Medium supplemented with IBMX (1 mM).
The subject of assay [6] is human renal carcinoma cells. As to conditions: 100 μM; cited from earlier work.

Chain of NPR-A (P18910 29-1057): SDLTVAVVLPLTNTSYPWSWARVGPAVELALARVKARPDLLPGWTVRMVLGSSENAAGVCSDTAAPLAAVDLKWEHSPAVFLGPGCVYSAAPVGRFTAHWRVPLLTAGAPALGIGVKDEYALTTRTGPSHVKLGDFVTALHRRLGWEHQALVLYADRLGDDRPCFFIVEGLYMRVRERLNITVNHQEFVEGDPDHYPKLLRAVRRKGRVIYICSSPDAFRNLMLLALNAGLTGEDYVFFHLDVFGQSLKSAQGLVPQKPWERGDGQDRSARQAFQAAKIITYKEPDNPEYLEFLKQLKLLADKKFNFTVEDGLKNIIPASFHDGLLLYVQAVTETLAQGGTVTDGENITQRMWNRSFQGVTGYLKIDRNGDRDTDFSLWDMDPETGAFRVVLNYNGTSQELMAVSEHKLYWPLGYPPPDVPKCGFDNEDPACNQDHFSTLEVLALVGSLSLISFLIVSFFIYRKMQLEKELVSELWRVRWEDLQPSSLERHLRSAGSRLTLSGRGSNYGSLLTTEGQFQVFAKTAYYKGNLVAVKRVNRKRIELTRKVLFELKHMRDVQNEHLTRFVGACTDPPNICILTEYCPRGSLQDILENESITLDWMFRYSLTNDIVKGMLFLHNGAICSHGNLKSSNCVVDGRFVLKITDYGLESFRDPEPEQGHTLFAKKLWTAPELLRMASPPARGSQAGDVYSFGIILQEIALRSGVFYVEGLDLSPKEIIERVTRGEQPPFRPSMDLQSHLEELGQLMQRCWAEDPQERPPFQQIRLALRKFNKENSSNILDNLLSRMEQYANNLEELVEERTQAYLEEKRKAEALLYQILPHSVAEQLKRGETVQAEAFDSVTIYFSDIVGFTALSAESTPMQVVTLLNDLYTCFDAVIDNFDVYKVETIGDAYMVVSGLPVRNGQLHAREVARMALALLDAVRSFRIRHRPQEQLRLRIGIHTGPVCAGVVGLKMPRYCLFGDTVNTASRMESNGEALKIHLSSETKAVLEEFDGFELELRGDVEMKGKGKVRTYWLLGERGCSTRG

Regarding `CC[C@H](C)[C@@H]1NC(=O)[C@H](CCCNC(=N)N)NC(=O)[C@H](CC(=O)O)NC(=O)[C@H](CC(C)C)NC(=O)[C@H](CCCCN)NC(=O)[C@H](CC(C)C)NC(=O)CNC(=O)[C@H](Cc2ccccc2)NC(=O)[C@@H](NC(=O)CNC(=O)[C@H](CCCCN)NC(=O)[C@H](CO)NC(=O)[C@H](CC(C)C)NC(=O)CN)CSSC[C@@H](C(=O)O)NC(=O)CNC(=O)[C@H](CC(C)C)NC(=O)CNC(=O)[C@H](CO)NC(=O)[C@H](CCSC)NC(=O)[C@H](CO)NC(=O)CNC1=O` [CNP, C-type natriuretic peptide], the concentration giving a half-maximal response (EC50) in assay [1] turned out to be 38.8 nM; in assay [5], 1600 nM. The “increase in cellularity (chondrocyte proliferation)” value in assay [2] is recorded as “up to 43%”. Further, the “stimulation of cGMP production” value in assay [3] is “up to 200 fold”. For the same compound, in assay [4], the “decrease in the number of cells” value is recorded as 39%. For the same compound, in assay [6], the “decrease in cell number” value is recorded as 10%.

As a reminder, the EC50 is the concentration needed to bring the measured effect to its halfway point.
